Measurements from PMC8231556, “Inhibiting Endothelial Cell Function in Normal and Tumor Angiogenesis Using BMP Type I Receptor Macrocyclic Kinase Inhibitors” (Cancers, 2021).

Legend:
EA.hy926 cells = assay: Proliferation assay (IncuCyte confluence); type: cell-based, human; settings: 0.5 µM, 3 days
Procedure: Around 4 × 10^3 EA.hy926 cells per well were seeded in a 96-well microplate Essen ImageLock™ in 200 µL of culture medium containing the indicated concentrations of compounds and ligands, and the plate was directly inserted into the IncuCyte ZOOM instrument for scanning. Images of each well were acquired every 4 h for 3 days. The real-time cell confluence in each well was analyzed after normalizing to the initial cell density. All the experiments were repeated at least three times, and representative results are shown.

ALK1 = ALK1 (Homo sapiens, UniProt P37023); assay: radiometric protein kinase assay, affinity (Kd); type: binding
Procedure: The binding interaction profile of the compounds for ALK1–6, ACVR2A, ACVR2B, and TGFβR2 was determined by using radiometric protein kinase assay. For each compound, ten different concentrations (from 3 × 10^−6 M to 9 × 10^−11 M) were used in the protein kinase reaction.

BRAF = molecular target: T1, BRAF (Homo sapiens, UniProt P15056); assay: radiometric kinase profiling (33 PanQinase); type: biochemical; settings: read-out: Inhibitory effect (%) BRAF
T1 construct: purchased Proqinase, Germany
Method in brief: (§1)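 Enzyme/substrate mixes were incubated with [γ-33P]-ATP and compound (added as a 0.1 μM solution in 10% DMSO) at 30 °C for 60 min, then stopped with H3PO4 and washed with NaCl. 33P incorporation was scintillation-counted, and residual activity (%) was normalized to untreated control and background.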

MAP4K4 = molecular target: T2, MAP4K4 (Homo sapiens, UniProt O95819); assay: radiometric kinase profiling (33 PanQinase); type: biochemical; settings: read-out: Inhibitory effect (%) MAP4K4
T2 construct: purchased ProQinase (33PanQinase Activity Assay)
Method in brief: as §1

FLT3 = molecular target: T3, FLT3 (Homo sapiens, UniProt P36888); assay: radiometric kinase profiling (33 PanQinase); type: biochemical; settings: read-out: Inhibitory effect (%) FLT3
T3 construct: purchased ProQinase (33PanQinase Activity Assay)
Method in brief: as §1

FGFR3 = molecular target: T4, FGFR3 (Homo sapiens, UniProt P22607); assay: radiometric kinase profiling (33 PanQinase); type: biochemical; settings: read-out: Inhibitory effect (%) FGFR3
T4 construct: purchased ProQinase (33PanQinase Activity Assay)
Method in brief: as §1

MAP4K5 = molecular target: T5, MAP4K5 (Homo sapiens, UniProt Q9Y4K4); assay: radiometric kinase profiling (33 PanQinase); type: biochemical; settings: read-out: Inhibitory effect (%) MAP4K5
T5 construct: purchased ProQinase (33PanQinase Activity Assay)
Method in brief: as §1

SIK2 = molecular target: T6, SIK2 (Homo sapiens, UniProt Q9H0K1); assay: radiometric kinase profiling (33 PanQinase); type: biochemical; settings: read-out: Inhibitory effect (%) SIK2
T6 construct: purchased ProQinase (33PanQinase Activity Assay)
Method in brief: as §1

ALK3 = ALK3 (Homo sapiens, UniProt P36894); assay: radiometric protein kinase assay, affinity (Kd); type: binding
Procedure: (§2) The binding interaction profile of the compounds for ALK1–6, ACVR2A, ACVR2B, and TGFβR2 was determined by using radiometric protein kinase assay. For each compound, ten different concentrations (from 3 × 10^−6 M to 9 × 10^−11 M) were used in the protein kinase reaction. The inhibitor binding constants (Kd values) were calculated based on the 10 corresponding residual activities for each compound using Prism 5.04 (Graphpad, San Diego, CA, USA) according to the following formula:Kd = ([K][I]/[C]) where [K] = molar concentration of non-inhibitor bound kinase at equilibrium, [I] = molar concentration of the free inhibitor at equilibrium, [C] = molar concentration of kinase-inhibitor complex at equilibrium.

ACVR2B = ACVR2B (Homo sapiens, UniProt Q13705); assay: radiometric protein kinase assay, affinity (Kd); type: binding
Procedure: as §2

ALK4 = ALK4 (Homo sapiens, UniProt P36896); assay: radiometric protein kinase assay, affinity (Kd); type: binding
Procedure: as §2

ALK5 = ALK5 (Homo sapiens, UniProt P36897); assay: radiometric protein kinase assay, affinity (Kd); type: binding
Procedure: as §2

ALK2 = ALK2 (Homo sapiens, UniProt Q04771); assay: radiometric protein kinase assay, affinity (Kd); type: binding
Procedure: as §2

[1] = tested on: Tg (fli:EGFP) zebrafish embryos; assay: Zebrafish embryo toxicity assay; type: in vivo; settings: 0.5 µM in egg water, three days
Procedure: Breeding pairs of the transgenic Casper zebrafish line Tg (fli:EGFP) were put together in a tank, and the next morning, all embryos were collected as previously described. Fertilized eggs that were at the same development stage (around 2.5 h post-fertilization (hpf)) were selected under the microscope. The eggs were randomly divided into different groups, and each group contained about 20 embryos. All the embryos were raised in egg water (60 μg/mL sea salt) and placed in a 28 °C incubator. The compounds dissolved in DMSO were diluted in egg water to a final concentration of 0.5 µM. Equal amounts of DMSO were added to the vehicle control group. Egg water was changed every day, and abnormal embryos were removed. Embryos were recorded until day 3. All experiments were performed in technical triplicates and repeated three times, and representative results are shown. The survival rate was calculated according to the following formula: Survival rate (%) = 100% × (Number of zebrafish that survived at the end)/(Number of zebrafish present at the beginning).

Chain of ALK3 (P36894 24-532): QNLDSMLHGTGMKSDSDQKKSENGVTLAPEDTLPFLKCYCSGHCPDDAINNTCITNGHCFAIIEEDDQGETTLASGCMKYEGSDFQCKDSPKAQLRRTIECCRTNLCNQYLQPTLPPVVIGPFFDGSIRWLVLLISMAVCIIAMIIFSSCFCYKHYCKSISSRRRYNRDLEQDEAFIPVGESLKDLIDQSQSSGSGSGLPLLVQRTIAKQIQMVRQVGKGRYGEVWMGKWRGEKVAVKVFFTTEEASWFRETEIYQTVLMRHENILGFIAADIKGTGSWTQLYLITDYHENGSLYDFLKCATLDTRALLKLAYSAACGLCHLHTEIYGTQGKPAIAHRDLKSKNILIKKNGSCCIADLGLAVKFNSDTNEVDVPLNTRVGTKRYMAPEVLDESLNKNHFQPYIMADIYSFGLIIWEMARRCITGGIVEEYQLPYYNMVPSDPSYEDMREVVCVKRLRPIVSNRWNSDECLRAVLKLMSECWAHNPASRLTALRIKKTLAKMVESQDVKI
Chain of ALK5 (P36897 34-503): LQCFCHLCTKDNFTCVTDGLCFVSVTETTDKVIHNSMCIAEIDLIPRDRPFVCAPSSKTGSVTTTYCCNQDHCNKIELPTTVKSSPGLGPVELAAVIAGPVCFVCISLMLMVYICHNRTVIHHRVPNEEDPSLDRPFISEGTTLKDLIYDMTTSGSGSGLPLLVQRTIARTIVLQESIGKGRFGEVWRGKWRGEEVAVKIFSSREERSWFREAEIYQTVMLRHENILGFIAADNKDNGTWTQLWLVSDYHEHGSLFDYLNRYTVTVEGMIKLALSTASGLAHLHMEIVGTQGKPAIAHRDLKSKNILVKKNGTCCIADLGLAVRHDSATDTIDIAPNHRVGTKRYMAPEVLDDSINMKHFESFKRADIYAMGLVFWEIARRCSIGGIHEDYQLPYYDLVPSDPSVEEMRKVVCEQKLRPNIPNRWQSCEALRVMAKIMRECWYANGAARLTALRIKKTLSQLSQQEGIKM
Chain of ALK4 (P36896 24-505): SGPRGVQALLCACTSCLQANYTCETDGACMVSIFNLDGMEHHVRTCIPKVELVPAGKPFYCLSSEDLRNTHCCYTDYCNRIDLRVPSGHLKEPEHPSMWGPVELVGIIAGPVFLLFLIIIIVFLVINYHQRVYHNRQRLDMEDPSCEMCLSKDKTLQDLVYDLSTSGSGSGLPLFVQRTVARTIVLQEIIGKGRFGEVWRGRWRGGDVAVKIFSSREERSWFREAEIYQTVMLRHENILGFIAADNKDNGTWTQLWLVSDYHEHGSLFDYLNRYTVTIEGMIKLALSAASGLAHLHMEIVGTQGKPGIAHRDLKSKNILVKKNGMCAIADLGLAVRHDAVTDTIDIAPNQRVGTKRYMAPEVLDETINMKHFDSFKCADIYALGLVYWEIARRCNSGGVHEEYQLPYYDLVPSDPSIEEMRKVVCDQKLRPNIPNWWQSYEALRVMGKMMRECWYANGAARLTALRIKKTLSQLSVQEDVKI
T3 sequence (P36888 27-993): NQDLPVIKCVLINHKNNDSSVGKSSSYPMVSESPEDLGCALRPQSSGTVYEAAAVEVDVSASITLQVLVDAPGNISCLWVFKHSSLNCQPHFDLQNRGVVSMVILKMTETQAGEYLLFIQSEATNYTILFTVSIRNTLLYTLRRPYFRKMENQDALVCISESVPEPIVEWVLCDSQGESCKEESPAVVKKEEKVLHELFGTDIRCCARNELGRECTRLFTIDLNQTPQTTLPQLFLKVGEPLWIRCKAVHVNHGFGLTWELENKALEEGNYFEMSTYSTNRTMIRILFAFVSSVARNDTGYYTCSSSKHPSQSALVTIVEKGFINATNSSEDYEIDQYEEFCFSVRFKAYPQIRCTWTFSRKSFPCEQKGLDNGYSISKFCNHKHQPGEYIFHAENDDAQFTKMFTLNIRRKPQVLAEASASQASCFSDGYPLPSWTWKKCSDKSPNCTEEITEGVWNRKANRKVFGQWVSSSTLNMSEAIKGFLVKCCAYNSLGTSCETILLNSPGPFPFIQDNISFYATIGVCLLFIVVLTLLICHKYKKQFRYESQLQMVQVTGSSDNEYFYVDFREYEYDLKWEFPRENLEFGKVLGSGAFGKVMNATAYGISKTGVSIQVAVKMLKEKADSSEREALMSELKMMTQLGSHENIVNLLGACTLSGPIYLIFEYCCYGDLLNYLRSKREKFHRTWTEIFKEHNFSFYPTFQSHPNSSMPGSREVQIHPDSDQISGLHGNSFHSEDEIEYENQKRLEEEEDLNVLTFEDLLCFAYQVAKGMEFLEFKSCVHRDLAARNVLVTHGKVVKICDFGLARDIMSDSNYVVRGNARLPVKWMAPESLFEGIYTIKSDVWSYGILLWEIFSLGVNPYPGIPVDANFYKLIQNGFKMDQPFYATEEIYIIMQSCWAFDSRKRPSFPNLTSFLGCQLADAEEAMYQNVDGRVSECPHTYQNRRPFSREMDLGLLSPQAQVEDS
Chain of ALK2 (Q04771 21-509): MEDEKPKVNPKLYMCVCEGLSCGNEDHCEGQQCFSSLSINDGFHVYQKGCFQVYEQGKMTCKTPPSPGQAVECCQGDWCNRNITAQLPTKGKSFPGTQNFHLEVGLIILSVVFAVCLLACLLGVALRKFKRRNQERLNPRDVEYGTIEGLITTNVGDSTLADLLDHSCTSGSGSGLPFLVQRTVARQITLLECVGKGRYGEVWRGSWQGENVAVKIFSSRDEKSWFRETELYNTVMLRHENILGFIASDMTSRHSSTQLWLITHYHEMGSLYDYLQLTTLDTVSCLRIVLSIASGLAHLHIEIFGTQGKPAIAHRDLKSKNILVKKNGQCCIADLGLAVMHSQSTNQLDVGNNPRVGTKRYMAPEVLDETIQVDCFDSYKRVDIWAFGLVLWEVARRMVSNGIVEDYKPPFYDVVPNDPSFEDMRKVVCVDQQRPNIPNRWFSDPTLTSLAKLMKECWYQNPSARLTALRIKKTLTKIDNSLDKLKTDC
T6 sequence (Q9H0K1 whole entry): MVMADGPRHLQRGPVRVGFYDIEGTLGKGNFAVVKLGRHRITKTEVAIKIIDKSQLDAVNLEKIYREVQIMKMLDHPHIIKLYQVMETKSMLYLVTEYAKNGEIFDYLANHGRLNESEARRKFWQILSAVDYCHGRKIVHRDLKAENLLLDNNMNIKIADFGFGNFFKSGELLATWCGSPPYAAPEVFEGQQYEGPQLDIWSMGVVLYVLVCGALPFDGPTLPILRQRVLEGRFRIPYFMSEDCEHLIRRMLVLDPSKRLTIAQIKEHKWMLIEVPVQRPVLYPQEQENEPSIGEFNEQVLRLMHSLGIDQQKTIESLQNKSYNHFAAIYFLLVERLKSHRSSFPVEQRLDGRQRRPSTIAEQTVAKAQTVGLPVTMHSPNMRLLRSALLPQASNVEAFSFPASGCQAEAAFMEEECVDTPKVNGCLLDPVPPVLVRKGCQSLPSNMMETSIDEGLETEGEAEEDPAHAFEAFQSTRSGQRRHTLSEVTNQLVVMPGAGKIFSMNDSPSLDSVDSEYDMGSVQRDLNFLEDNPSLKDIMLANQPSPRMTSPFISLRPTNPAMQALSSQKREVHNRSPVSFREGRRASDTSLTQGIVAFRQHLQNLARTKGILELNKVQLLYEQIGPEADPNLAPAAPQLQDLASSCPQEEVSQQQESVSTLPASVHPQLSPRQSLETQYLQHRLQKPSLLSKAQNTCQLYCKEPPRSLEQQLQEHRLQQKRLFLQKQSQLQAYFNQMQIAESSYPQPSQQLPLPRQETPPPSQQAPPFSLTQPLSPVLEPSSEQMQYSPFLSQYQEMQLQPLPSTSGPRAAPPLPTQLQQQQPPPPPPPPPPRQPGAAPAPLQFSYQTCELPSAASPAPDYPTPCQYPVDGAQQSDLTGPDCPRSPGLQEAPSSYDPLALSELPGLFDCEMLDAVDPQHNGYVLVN
T4 sequence (P22607 23-806): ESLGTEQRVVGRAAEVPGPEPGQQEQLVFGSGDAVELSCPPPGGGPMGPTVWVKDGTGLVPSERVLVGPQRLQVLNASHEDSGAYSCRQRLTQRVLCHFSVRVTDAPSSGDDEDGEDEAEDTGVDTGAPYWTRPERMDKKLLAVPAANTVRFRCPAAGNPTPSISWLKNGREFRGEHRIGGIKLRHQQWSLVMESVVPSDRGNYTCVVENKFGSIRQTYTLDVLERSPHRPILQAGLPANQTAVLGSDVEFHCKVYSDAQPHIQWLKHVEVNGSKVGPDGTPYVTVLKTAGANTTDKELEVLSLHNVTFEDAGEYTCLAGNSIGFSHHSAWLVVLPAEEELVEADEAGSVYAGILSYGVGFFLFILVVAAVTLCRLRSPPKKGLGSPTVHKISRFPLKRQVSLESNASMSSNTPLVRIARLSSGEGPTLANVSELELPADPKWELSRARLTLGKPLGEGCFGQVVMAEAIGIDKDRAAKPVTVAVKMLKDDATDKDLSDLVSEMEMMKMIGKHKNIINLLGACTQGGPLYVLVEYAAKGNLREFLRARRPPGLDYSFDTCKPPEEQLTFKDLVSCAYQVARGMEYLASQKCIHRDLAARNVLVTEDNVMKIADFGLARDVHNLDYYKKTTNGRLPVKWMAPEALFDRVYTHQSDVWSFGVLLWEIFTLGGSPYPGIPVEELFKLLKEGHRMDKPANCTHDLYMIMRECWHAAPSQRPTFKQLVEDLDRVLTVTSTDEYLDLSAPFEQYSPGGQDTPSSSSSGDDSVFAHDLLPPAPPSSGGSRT

SMILES	effect on EC proliferation (real-time confluence) (EA.hy926 cells)	Kd (ALK1) [nM]	inhibition at 0.1 µM (BRAF) [%]	inhibition at 0.1 µM (MAP4K4) [%]	inhibition at 0.1 µM (FLT3) [%]	inhibition at 0.1 µM (FGFR3) [%]	inhibition at 0.1 µM (MAP4K5) [%]	inhibition at 0.1 µM (SIK2) [%]	Kd (ALK3) [nM]	Kd (ACVR2B) [nM]	Kd (ALK4) [nM]	Kd (ALK5) [nM]	Kd (ALK2) [nM]	survival rate of the zebrafish [1]
c1ccc2c(-c3cnn4cc(-c5ccc(N6CCNCC6)cc5)cnc34)ccnc2c1 [LDN-193189, reference compound]	strongly inhibited	–	–	–	–	–	–	–	–	–	–	–	–	–
CN1CCc2cccc(c2)Nc2nccc(n2)N2CCCc3cc(ccc32)C1 [OD16]	LDN-193189 strongly inhibited ECs proliferation, unlike OD16 and OD29	20	5.01	-0.07	4.56	14.8	14.6	43.8	55	220	270	360	17	80–93%
CN1CCC(=O)NCCNc2ccn3ncc(c3n2)-c2cccc(c2)C1 [OD29]	LDN-193189 strongly inhibited ECs proliferation, unlike OD16 and OD29	6	5.1	13.5	-4.23	49.5	19.1	1.13	1010	558	652	1010	10	80–93%
